# In publication PMC7032255 (Asian Journal of Pharmaceutical Sciences, 2018):
# “Also recorded” adds a separate entry of the source. Read-outs that look alike come from different tables or passages of the source.
# What was measured:
# [1] = in human; parent drug versus its prodrug LY2140023; cited from earlier work
# [2] = background value, no reference given; cited from earlier work
# [3] = cited from earlier work; for oral bioavailability of cytarabine: cytarabine versus its L-valyl prodrug valcytarabine
# hPEPT1 = target: T1, hPEPT1 (Homo sapiens, UniProt P46059); assay: Uptake by MDCK-hPEPT1 cells versus MDCK mock cells; assay type: cell-based; settings: Fig. 6A
# T1 sequence (P46059 1-708): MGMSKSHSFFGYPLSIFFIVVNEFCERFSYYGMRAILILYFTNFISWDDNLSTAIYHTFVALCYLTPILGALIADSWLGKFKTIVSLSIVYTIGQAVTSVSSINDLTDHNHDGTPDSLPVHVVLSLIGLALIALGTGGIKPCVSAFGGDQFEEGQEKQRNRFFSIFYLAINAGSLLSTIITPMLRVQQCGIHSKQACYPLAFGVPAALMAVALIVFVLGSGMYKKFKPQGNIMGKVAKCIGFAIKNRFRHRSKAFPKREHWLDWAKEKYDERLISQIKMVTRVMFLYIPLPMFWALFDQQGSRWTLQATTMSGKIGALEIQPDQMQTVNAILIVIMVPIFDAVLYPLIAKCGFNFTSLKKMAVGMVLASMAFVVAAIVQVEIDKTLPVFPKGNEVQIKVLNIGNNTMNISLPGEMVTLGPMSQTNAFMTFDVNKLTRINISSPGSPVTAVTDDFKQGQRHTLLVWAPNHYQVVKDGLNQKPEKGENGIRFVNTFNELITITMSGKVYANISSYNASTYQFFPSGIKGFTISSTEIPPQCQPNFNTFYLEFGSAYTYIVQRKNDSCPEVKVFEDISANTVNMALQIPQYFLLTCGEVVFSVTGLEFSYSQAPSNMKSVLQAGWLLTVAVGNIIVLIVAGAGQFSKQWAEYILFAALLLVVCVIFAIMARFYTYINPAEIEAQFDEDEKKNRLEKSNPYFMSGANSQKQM
# [4] = rat plasma, intravenous injection 8 mg/kg
# [5] = rat plasma, oral administration, 160 mg/kg calculated as peramivir
smiles,measurement,setting,value
N[C@@]1(C(=O)O)CS(=O)(=O)[C@H]2[C@H](C(=O)O)[C@H]21 [LY404039],oral bioavailability of the parent drug LY404039,[1],6.0%
CSCC[C@H](N)C(=O)N[C@@]1(C(=O)O)CS(=O)(=O)[C@H]2[C@H](C(=O)O)[C@H]21 [LY2140023],oral bioavailability of the parent drug LY404039,[1],68.0%
CCC(CC)[C@H](NC(C)=O)[C@@H]1[C@H](O)[C@@H](C(=O)O)C[C@H]1N=C(N)N [Peramivir],AUC0-∞ of peramivir,[4],3604.8 ng·h/mL
same,t1/2 of peramivir,[4],3.9 h
same,AUC0-∞ of peramivir,[5],2955.9 ng·h/mL
same,Cmax of peramivir,[5],771.6 ± 278.3 ng/mL
same,Tmax of peramivir,[5],1.0 h
same,t1/2 of peramivir,[5],3.2 h
same,"F, absolute oral bioavailability of peramivir","rat, oral 160 mg/kg calculated as peramivir versus i.v. peramivir 8 mg/kg",4.1%
same,log P,[2],−1.4
same,oral bioavailability,"[3]; peramivir given orally, background value, reference not given",3%
same,PEPT1-mediated transport (uptake in MDCK-hPEPT1 versus mock cells),hPEPT1,no PEPT1-mediated transport; also recorded: not (statistically) significant different between MDCK-hPEPT1 and MDCK mock cells
Nc1ccn([C@@H]2O[C@H](CO)[C@@H](O)[C@@H]2O)c(=O)n1 [cytarabine],oral bioavailability of cytarabine,[3],21.8%
CC(C)C(N)C(=O)OCC1OC(n2ccc(N)nc2=O)C(O)C1O (centres unmarked) [valcytarabine],oral bioavailability of cytarabine,[3],60.0%
